The source of these data is article PMC9054212, “Discovery of 4-(2-(dimethylamino)ethoxy)benzohydrazide derivatives as prospective microtubule affinity regulating kinase 4 inhibitors” (RSC Advances, 2020).

Like-named read-outs stand apart in the source and are kept apart here.

Data set [1] addresses T1, MARK4 (Homo sapiens, UniProt Q96L34).
T1 construct: MARK4 protein was expressed and purified by following previous protocols; made in house
T1 sequence (Q96L34 1-752): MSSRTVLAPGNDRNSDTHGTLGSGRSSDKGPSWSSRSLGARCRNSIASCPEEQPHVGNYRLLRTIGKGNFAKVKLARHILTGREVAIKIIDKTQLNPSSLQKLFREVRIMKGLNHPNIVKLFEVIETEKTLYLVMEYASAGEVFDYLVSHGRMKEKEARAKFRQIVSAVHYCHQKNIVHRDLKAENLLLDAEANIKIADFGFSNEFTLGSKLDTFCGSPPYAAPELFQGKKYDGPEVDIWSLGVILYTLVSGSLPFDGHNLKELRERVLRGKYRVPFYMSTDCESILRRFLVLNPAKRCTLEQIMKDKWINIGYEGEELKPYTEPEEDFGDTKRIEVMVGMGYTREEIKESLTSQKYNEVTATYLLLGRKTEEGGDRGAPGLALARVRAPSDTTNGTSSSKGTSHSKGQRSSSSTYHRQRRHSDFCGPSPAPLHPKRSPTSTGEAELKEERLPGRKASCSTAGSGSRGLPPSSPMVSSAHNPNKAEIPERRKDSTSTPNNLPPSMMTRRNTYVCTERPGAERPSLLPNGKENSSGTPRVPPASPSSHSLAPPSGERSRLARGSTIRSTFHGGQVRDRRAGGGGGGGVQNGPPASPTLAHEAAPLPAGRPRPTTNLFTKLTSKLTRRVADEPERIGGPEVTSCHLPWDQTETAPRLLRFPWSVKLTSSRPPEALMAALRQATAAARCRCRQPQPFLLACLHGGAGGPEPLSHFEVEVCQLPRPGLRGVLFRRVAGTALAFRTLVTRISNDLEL
The data set can be described thus: MARK4 ATPase enzyme inhibition assay. The class given is biochemical. Here is the method: MARK4 protein was expressed and purified by following previous protocols.[27,37] The purity of the protein was further confirmed by a single band shown by SDS PAGE. ATPase assay was carried out to evaluate the enzyme activity of MARK4 in the presence of selected hydrazone derivatives. The activity of MARK4 was studied with the increasing concentration of each selected hydrazone derivative by following our published protocol.[24,38]
To further evaluate the inhibitory potential of selected compounds with MARK4, enzyme inhibition assay was performed (at a single dose of 10 μM). […] Thus, these two compounds were further selected and evaluated with MARK4 in a concentration-dependent manner. […] The percent inhibition of ATPase activity was plotted as a function of ligand concentration and used to estimate IC50 (concentration of 50% inhibition, Fig. 1A).

Data set [2] addresses T1, MARK4. The data set can be described thus: Fluorescence quenching binding study with MARK4. To be noted: Stern–Volmer plot, ligand 0–20 μM, MARK4 5 μM. Here is the method: The binding affinity of selected hydrazone derivatives with human serum albumin (HSA) and MARK4 was carried out using fluorescence binding studies as described.[39] The values of binding constant (Ka) and a number of binding sites present in protein (n) were obtained by using the modified Stern–Volmer equation from the intercept and slope, respectively.
To measure the actual binding affinity of selected ligands with MARK4 and HSA, fluorescence quenching studies were performed.[43,44] Both MARK4 and HSA contain tryptophan residues, therefore it has been used as an intrinsic fluorophore to estimate the interaction of ligand. Protein was excited at 280 nm and the emission spectrum was recorded in 300–400 nm range. With increasing ligand concentrations (0–20 μM), the fluorescence intensity of MARK4 and HSA was decreases in a concentration-dependent manner (Fig. 3 and 4), indicating a considerable binding. Values of Ka and n were calculated from fluorescence emission spectra using the Stern–Volmer plot. […]
Fig. 3 Binding of compound H4 and H19 with MARK4. (A) Fluorescence emission spectra of MARK4 (5 μM) with increasing concentrations of compound H4 and H19. (B) Stern–Volmer plot obtained from the fluorescence quenching data of MARK4 by compound H4 and H19, respectively. Protein sample was excited at 280 nm and emission for each titration was recorded in the range of 300–400 nm. […]

Data set [3] has as its system HEK293 cells. The data set can be described thus: MTT cell viability assay, non-cancerous HEK293. The class given is cell-based, human. The settings on record: at the IC50 or active concentration, compared with cancerous cells. Here is the method: Human cell lines (HEK-293, A549 and MCF-7) were seeded and maintained in a medium supplemented with DMEM along with 10% heat-inactivated fetal bovine serum (Gibco) and 1% penicillin, streptomycin solution (Gibco), cultured in a 5% CO2 humidified incubator at 37 °C. Cell cultures were maintained and trypsinized regularly, not for more than 30 passages. MTT assay was carried out to see the effect of selected hydrazone compound treatment on the viability of non-cancerous (HEK-293) and cancerous cell lines (A549 and MCF-7) as per described method.[22,24] In brief, 6000–7000 cells per well were seeded in a 96-well plate and after 24 h growth, the cells were treated with increasing concentrations (0–200 μM) of each hydrazone (final volume of 200 μL) for 48 h at 37 °C in a humidified chamber. After 48 h, MTT was added (20 μL solution from 5 mg mL^−1 stock solution prepared in phosphate buffer saline, pH 7.4) to each well and plates were further incubated for 4–5 h at 37 °C in a CO2 incubator. The supernatant was aspirated and the formazan crystals were dissolved in 150 μL of DMSO. The absorbance (A) of final products was measured using multiplate ELISA reader (BioRad) at 570 nm. The percentage of cell viability was calculated and IC50 (50% inhibitory concentration) values of each hydrazone derivative were estimated (paclitaxel was taken as a positive control for cell proliferation studies).
For orientation: Formazan colour is commonly taken as a measure of viable cells.

Where [4] appears, read: bound stated after screen at a single dose of 10 μM, read-out: IC50, MARK4 enzyme inhibition.
The mark [5] stands for this setting: cell-free, concentration-dependent, read-out: IC50, inhibition of ATPase activity of MARK4.

A word on the IC50: it is the concentration that inhibits the measured activity by half. With `CN(C)CCOc1ccc(C(=O)NN=Cc2ccc(Cl)cc2)cc1` [H4], the values for the IC50 in data set [1] (setting [4]) and in data set [1] (setting [5]) were under 1000 nM and 149 nM, respectively. In data set [2], the “binding constant Ka for MARK4” value came to 4.07e+09 M⁻¹. Further, the “cytotoxicity to non-cancerous cells” value in data set [3] is recorded as “less toxic”.
On to `Cc1cc(C)c(C=NNC(=O)c2ccc(OCCN(C)C)cc2)c(C)c1` [H19], for which the values for the half-inhibitory concentration (IC50) in data set [1] (setting [4]) and in data set [1] (setting [5]) were under 1000 nM and 215 nM, respectively. Also, the Kd in data set [2] (read-out: binding constant Ka for MARK4 (converted)) was 10.4 nM. Moreover, in data set [3], the “cytotoxicity to non-cancerous cells” value is listed as “less toxic”.
